# Reference: patent US9963434B2, “N-arylmethyl sulfonamide negative modulators of NR2A” (LUC THERAPEUTICS, priority 2013, dated 2018)
# pIC50: −log10 of the molar value. Like-named read-outs stand apart in the source and are kept apart here.
# Target: NR1/NR2A (Homo sapiens (Human), UniProt Q05586+Q12879)
# Test: FDSS Ca2+ influx inhibition assay in HEK293 cells expressing NR1/NR2A
# Assay type: cell-based
# Settings: 3 μM glutamate, 3 μM glycine, 1 mM Ca2+
# Procedure, shortened: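 Fluo-8-loaded HEK293 NR1/NR2A cells preincubated 10 min with compound at 10 μM final (0.1% DMSO) in Ca2+/Mg2+-free HBSS with 20 mM HEPES. Stimulated with 3 μM glutamate, 3 μM glycine, 1 mM Ca2+; FDSS recording for 3 min, end/baseline fluorescence ratio compared with MK801.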
# [1] = inhibition relative to MK801, read-out: NR2A IC50
# Chain of NR1/NR2A (Q12879 23-1464, other chains not shown): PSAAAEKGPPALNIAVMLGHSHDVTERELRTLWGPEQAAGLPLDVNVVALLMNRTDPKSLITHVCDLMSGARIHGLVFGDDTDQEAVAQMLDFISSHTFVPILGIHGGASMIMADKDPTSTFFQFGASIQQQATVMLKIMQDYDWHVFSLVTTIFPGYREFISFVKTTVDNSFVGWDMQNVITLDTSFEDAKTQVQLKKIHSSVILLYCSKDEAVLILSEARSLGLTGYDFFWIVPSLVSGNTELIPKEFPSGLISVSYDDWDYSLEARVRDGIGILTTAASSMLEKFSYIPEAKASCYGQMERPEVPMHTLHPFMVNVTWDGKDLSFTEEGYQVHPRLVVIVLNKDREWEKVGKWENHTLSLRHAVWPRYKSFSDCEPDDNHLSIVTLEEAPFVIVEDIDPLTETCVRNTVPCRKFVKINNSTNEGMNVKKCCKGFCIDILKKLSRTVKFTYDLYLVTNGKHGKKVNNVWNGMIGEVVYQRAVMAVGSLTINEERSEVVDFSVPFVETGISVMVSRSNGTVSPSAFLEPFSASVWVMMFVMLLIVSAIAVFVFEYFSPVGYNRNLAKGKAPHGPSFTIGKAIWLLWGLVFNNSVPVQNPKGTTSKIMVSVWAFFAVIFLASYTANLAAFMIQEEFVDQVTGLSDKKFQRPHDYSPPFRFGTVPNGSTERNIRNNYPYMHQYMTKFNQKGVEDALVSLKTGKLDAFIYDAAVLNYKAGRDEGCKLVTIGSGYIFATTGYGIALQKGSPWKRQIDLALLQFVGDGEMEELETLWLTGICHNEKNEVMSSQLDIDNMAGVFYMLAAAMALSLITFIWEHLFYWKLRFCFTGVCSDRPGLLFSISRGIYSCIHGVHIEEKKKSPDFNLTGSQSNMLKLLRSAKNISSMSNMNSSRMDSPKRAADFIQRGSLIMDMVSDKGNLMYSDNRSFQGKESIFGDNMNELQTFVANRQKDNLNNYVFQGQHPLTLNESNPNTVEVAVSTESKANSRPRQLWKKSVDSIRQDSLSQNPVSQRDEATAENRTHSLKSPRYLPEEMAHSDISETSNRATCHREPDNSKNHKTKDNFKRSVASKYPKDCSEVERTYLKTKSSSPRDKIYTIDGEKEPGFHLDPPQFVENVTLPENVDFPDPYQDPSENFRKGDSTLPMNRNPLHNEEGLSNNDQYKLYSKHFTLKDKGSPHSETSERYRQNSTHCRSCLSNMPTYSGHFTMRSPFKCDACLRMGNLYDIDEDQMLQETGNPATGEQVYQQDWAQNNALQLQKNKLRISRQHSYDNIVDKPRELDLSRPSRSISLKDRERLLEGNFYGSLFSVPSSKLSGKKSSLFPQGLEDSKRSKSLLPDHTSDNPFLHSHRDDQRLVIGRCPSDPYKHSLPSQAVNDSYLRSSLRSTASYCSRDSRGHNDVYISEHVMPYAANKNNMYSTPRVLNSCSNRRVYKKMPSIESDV
pIC50 [1],pIC50 (read-out: Binned Activity),Compound
5.00,< 5.00,"Cc1ncc(CNC(=O)c2ncc(CNS(=O)(=O)c3ccc(F)c(Cl)c3)cn2)s1 [5-(3-chloro-4-fluorobenzenesulfon-amidomethyl)-N-[(2-methyl-1,3-thiazol-5-yl)methyl]pyrimidine-2-carboxamide]"
5.00,< 5.00,COc1ccc(CNC(=O)c2cnc(CNS(=O)(=O)c3ccc(F)c(Cl)c3)cn2)cc1 [5-(3-chloro-4-fluorobenzenesulfon-amidomethyl)-N-[(4-methoxyphenyl)methyl] pyrazine-2-carboxamide]
5.00,< 5.00,COc1ccc(CNC(=O)c2ccc(CNS(=O)(=O)c3ccc(F)c(Cl)c3)cn2)cc1 [5-(3-chloro-4-fluorobenzenesulfon-amidomethyl)-N-[(4-methoxyphenyl)methyl] pyridine-2-carboxamide]
5.00,,"Cc1csc(CNC(=O)c2cnc(CNS(=O)(=O)c3ccc(F)c(Cl)c3)cn2)n1 [5-(3-chloro-4-fluorobenzenesulfon-amidomethyl)-N-[(4-methyl-1,3-thiazol-2-yl)methyl]pyrazine-2-carboxamide]"
5.00,< 5.00,"Cc1csc(CNC(=O)c2ccc(CNS(=O)(=O)c3ccc(F)c(Cl)c3)cn2)n1 [5-(3-chloro-4-fluorobenzenesulfon-amidomethyl)-N-[(4-methyl-1,3-thiazol-2-yl)methyl]pyridine-2-carboxamide]"
5.00,< 5.00,"Cc1ncsc1CNC(=O)c1cnc(CNS(=O)(=O)c2ccc(F)c(Cl)c2)cn1 [5-(3-chloro-4-fluorobenzenesulfon-amidomethyl)-N-[(4-methyl-1,3-thiazol-5-yl)methyl]pyrazine-2-carboxamide]"
5.00,< 5.00,"Cc1ncsc1CNC(=O)c1ccc(CNS(=O)(=O)c2ccc(F)c(Cl)c2)cn1 [5-(3-chloro-4-fluorobenzenesulfon-amidomethyl)-N-[(4-methyl-1,3-thiazol-5-yl)methyl]pyridine-2-carboxamide]"
,6.00 to 7.00,Cc1ccncc1CNC(=O)c1cnc(CNS(=O)(=O)c2ccc(F)c(Cl)c2)cn1 [5-(3-chloro-4-fluorobenzenesulfon-amidomethyl)-N-[(4-methylpyridin-3-yl)methyl]pyrazine-2-carboxamide]
,6.00 to 7.00,Cc1ccncc1CNC(=O)c1ccc(CNS(=O)(=O)c2ccc(F)c(Cl)c2)cn1 [5-(3-chloro-4-fluorobenzenesulfon-amidomethyl)-N-[(4-methylpyridin-3-yl)methyl]pyridine-2-carboxamide]
,5.00 to 6.00,O=C(NCc1cncc(F)c1)c1cnc(CNS(=O)(=O)c2ccc(F)c(Cl)c2)cn1 [5-(3-chloro-4-fluorobenzenesulfon-amidomethyl)-N-[(5-fluoropyridin-3-yl)methyl]pyrazine-2-carboxamide]
,5.00 to 6.00,"Cc1nnc(CNC(=O)c2cnc(CNS(=O)(=O)c3ccc(F)c(Cl)c3)cn2)o1 [5-(3-chloro-4-fluorobenzenesulfon-amidomethyl)-N-[(5-methyl-1,3,4-oxadiazol-2-yl)methyl]pyrazine-2-carboxamide]"
,5.00 to 6.00,"Cc1nnc(CNC(=O)c2ccc(CNS(=O)(=O)c3ccc(F)c(Cl)c3)cn2)o1 [5-(3-chloro-4-fluorobenzenesulfon-amidomethyl)-N-[(5-methyl-1,3,4-oxadiazol-2-yl)methyl]pyridine-2-carboxamide]"
,6.00 to 7.00,"Cc1nnc(CNC(=O)c2cnc(CNS(=O)(=O)c3ccc(F)c(Cl)c3)cn2)s1 [5-(3-chloro-4-fluorobenzenesulfon-amidomethyl)-N-[(5-methyl-1,3,4-thiadiazol-2-yl)methyl]pyrazine-2-carboxamide]"
,5.00 to 6.00,"Cc1nnc(CNC(=O)c2ccc(CNS(=O)(=O)c3ccc(F)c(Cl)c3)cn2)s1 [5-(3-chloro-4-fluorobenzenesulfon-amidomethyl)-N-[(5-methyl-1,3,4-thiadiazol-2-yl)methyl]pyridine-2-carboxamide]"
,5.00 to 6.00,Cc1cnc(CNC(=O)c2cnc(CNS(=O)(=O)c3ccc(F)c(Cl)c3)cn2)cn1 [5-(3-chloro-4-fluorobenzenesulfon-amidomethyl)-N-[(5-methylpyrazin-2-yl)methyl]pyrazine-2-carboxamide]
5.00,< 5.00,Cc1ccc(CNC(=O)c2cnc(CNS(=O)(=O)c3ccc(F)c(Cl)c3)cn2)s1 [5-(3-chloro-4-fluorobenzenesulfon-amidomethyl)-N-[(5-methylthiophen-2-yl)methyl]pyrazine-2-carboxamide]
5.00,< 5.00,Cc1ccc(CNC(=O)c2ccc(CNS(=O)(=O)c3ccc(F)c(Cl)c3)cn2)s1 [5-(3-chloro-4-fluorobenzenesulfon-amidomethyl)-N-[(5-methylthiophen-2-yl)methyl]pyridine-2-carboxamide]
5.00,< 5.00,COc1ccc(CNC(=O)c2cnc(CNS(=O)(=O)c3ccc(F)c(Cl)c3)cn2)cn1 [5-(3-chloro-4-fluorobenzenesulfon-amidomethyl)-N-[(6-methoxypyridin-3-yl)methyl]pyrazine-2-carboxamide]

pIC50 [1],pIC50 (read-out: Binned Activity),Compound
,5.00 to 6.00,COc1ccc(CNC(=O)c2ccc(CNS(=O)(=O)c3ccc(F)c(Cl)c3)cn2)cn1 [5-(3-chloro-4-fluorobenzenesulfon-amidomethyl)-N-[(6-methoxypyridin-3-yl)methyl]pyridine-2-carboxamide]
5.00,< 5.00,Cc1cccc(CNC(=O)c2cnc(CNS(=O)(=O)c3ccc(F)c(Cl)c3)cn2)n1 [5-(3-chloro-4-fluorobenzenesulfon-amidomethyl)-N-[(6-methylpyridin-2-yl)methyl]pyrazine-2-carboxamide]
5.00,< 5.00,Cc1cccc(CNC(=O)c2ccc(CNS(=O)(=O)c3ccc(F)c(Cl)c3)cn2)n1 [5-(3-chloro-4-fluorobenzenesulfon-amidomethyl)-N-[(6-methylpyridin-2-yl)methyl]pyridine-2-carboxamide]
5.00,< 5.00,"Cc1nc(C)c(CNC(=O)c2cnc(CNS(=O)(=O)c3ccc(F)c(Cl)c3)cn2)s1 [5-(3-chloro-4-fluorobenzenesulfon-amidomethyl)-N-[(dimethyl-1,3-thiazol-5-yl)methyl]pyrazine-2-carboxamide]"
5.00,< 5.00,"Cc1nc(C)c(CNC(=O)c2ccc(CNS(=O)(=O)c3ccc(F)c(Cl)c3)cn2)s1 [5-(3-chloro-4-fluorobenzenesulfon-amidomethyl)-N-[(dimethyl-1,3-thiazol-5-yl)methyl]pyridine-2-carboxamide]"
5.00,< 5.00,O=C(NCc1ncccc1C(F)(F)F)c1cnc(CNS(=O)(=O)c2ccc(F)c(Cl)c2)cn1 [5-(3-chloro-4-fluorobenzenesulfon-amidomethyl)-N-{[3-(trifluoromethyl)pyridin-2-yl]methyl}pyrazine-2-carboxamide]
5.00,< 5.00,O=C(NCc1ncccc1C(F)(F)F)c1ccc(CNS(=O)(=O)c2ccc(F)c(Cl)c2)cn1 [5-(3-chloro-4-fluorobenzenesulfon-amidomethyl)-N-{[3-(trifluoromethyl)pyridin-2-yl]methyl}pyridine-2-carboxamide]
5.00,< 5.00,O=C(NCc1ncc(C(F)(F)F)cc1Cl)c1cnc(CNS(=O)(=O)c2ccc(F)c(Cl)c2)cn1 [5-(3-chloro-4-fluorobenzenesulfon-amidomethyl)-N-{[3-chloro-5-(trifluoromethyl)pyridin-2-yl]methyl}pyrazine-2-carboxamide]
5.00,< 5.00,O=C(NCc1ncc(C(F)(F)F)cc1Cl)c1ccc(CNS(=O)(=O)c2ccc(F)c(Cl)c2)cn1 [5-(3-chloro-4-fluorobenzenesulfon-amidomethyl)-N-{[3-chloro-5-(trifluoromethyl)pyridin-2-yl]methyl}pyridine-2-carboxamide]
,5.00 to 6.00,COc1cccc(CNC(=O)c2ccc(CNS(=O)(=O)c3ccc(F)c(Cl)c3)cn2)c1 [5-(3-chloro-4-fluorobenzenesulfon-midomethyl)-N-[(3-methoxyphenyl)methyl] pyridine-2-carboxamide]
,6.00 to 7.00,"Cc1ncc(CNC(=O)c2cnc(CNS(=O)(=O)c3cccc(Cl)c3)cn2)s1 [5-(3-chlorobenzenesulfon-amidomethyl)-N-[(2-methyl-1,3-thiazol-5-yl)methyl]pyrazine-2-carboxamide]"
,5.00 to 6.00,"Cc1ncc(CNC(=O)c2ccc(CNS(=O)(=O)c3cccc(Cl)c3)cn2)s1 [5-(3-chlorobenzenesulfon-amidomethyl)-N-[(2-methyl-1,3-thiazol-5-yl)methyl]pyridine-2-carboxamide]"
,> 7.00,"Cc1ncc(CNC(=O)c2cnc(CNS(=O)(=O)c3cccc(Cl)c3)c(C)n2)s1 [5-(3-chlorobenzenesulfon-midomethyl)-6-methyl-N-[(2-methyl-1,3-thiazol-5-yl)methyl]pyrazine-2-carboxamide]"
,5.00 to 6.00,"Cc1ncc(CNC(=O)c2cnc(CNS(=O)(=O)c3ccc(Cl)c(F)c3)c(C)n2)s1 [5-(4-chloro-3-fluorobenzenesulfon-amidomethyl)-6-methyl-N-[(2-methyl-1,3-thiazol-5-yl)methyl]pyrazine-2-carboxamide]"
5.00,< 5.00,"Cc1ncc(CNC(=O)c2cnc(CNS(=O)(=O)c3ccc(Cl)c(F)c3)cn2)s1 [5-(4-chloro-3-fluorobenzenesulfon-amidomethyl)-N-[(2-methyl-1,3-thiazol-5-yl)methyl]pyrazine-2-carboxamide]"
,5.00 to 6.00,"Cc1ncc(CNC(=O)c2ccc(CNS(=O)(=O)c3ccc(Cl)c(F)c3)cn2)s1 [5-(4-chloro-3-fluorobenzenesulfon-amidomethyl)-N-[(2-methyl-1,3-thiazol-5-yl)methyl]pyridine-2-carboxamide]"
,6.00 to 7.00,"Cc1ncc(CNC(=O)c2cnc(CNS(=O)(=O)c3ccc(F)cc3)c(C)n2)s1 [5-(4-fluorobenzenesulfon-amidomethyl)-6-methyl-N-[(2-methyl-1,3-thiazol-5-yl)methyl]pyrazine-2-carboxamide]"
